From the supplement of paper PMC10307832

What was measured:
Assay in all cases: relative viability (nuclei count vs DMSO), 5 days (fraction); higher = more cells survive
NCI-H2085 = system: NCI-H2085
Outline: (§1)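 The day after seeding in 1536-well plates, lung cancer cell lines were treated by pin tool with a single drug, or with a fixed anchor-drug dose together with five library-drug doses (not always all listed) in √10 steps. After 5 days, a combined fix-and-stain solution (final 0.05% Triton X-100, 1% formaldehyde, 1 ug/ml Hoechst) was added. Nuclei counted on 4× images gave relative viability as treated counts over vehicle counts, reported as the median of duplicate plates.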

NCI-H2228 = system: NCI-H2228
Outline: as §1

LC-2-ad = system: LC-2-ad
Outline: as §1

UMC-11 = system: UMC-11
Outline: as §1

HCC-366 = system: HCC-366
Outline: as §1

LXF-289 = system: LXF-289
Outline: as §1

HCC-827 = system: HCC-827
Outline: as §1

HCC-15 = system: HCC-15
Outline: as §1

COR-L23 = system: COR-L23
Outline: as §1

NCI-H2009 = system: NCI-H2009
Outline: as §1

SK-MES-1 = system: SK-MES-1
Outline: as §1

NCI-H1666 = system: NCI-H1666
Outline: as §1

NCI-H1975 = system: NCI-H1975
Outline: as §1

NCI-H661 = system: NCI-H661
Outline: as §1

H3255 = system: H3255
Outline: as §1

NCI-H23 = system: NCI-H23
Outline: as §1

NCI-H2087 = system: NCI-H2087
Outline: as §1

PC-14 = system: PC-14
Outline: as §1

NCI-H1437 = system: NCI-H1437
Outline: as §1

PC-3 [JPC-3] = system: PC-3 [JPC-3]
Outline: as §1

LCLC-103H = system: LCLC-103H
Outline: as §1

ABC-1 = system: ABC-1
Outline: as §1

## Nc1cccc2c1CN(C1CCC(=O)NC1=O)C2=O (configuration not stated) [Lenalidomide] + Cc1nc(NC(=O)N2CCC[C@H]2C(N)=O)sc1-c1ccnc(C(C)(C)C(F)(F)F)c1 [Alpelisib] (partner 2 µM)
NCI-H2085; first compound 0.253 µM
  relative viability: 1.01
NCI-H2085; first compound 0.8 µM
  relative viability: 0.997
NCI-H2085; first compound 2.53 µM
  relative viability: 0.952
NCI-H2085; first compound 8 µM
  relative viability: 0.972
NCI-H2228; first compound 0.253 µM
  relative viability: 0.851
NCI-H2228; first compound 0.8 µM
  relative viability: 0.736
NCI-H2228; first compound 2.53 µM
  relative viability: 0.785
NCI-H2228; first compound 8 µM
  relative viability: 0.817
LC-2-ad; first compound 0.253 µM
  relative viability: 0.86
LC-2-ad; first compound 0.8 µM
  relative viability: 0.98
LC-2-ad; first compound 2.53 µM
  relative viability: 0.84
LC-2-ad; first compound 8 µM
  relative viability: 0.881
UMC-11; first compound 0.253 µM
  relative viability: 1.05
UMC-11; first compound 0.8 µM
  relative viability: 0.961
UMC-11; first compound 2.53 µM
  relative viability: 1.03
UMC-11; first compound 8 µM
  relative viability: 0.958
HCC-366; first compound 0.253 µM
  relative viability: 0.402
HCC-366; first compound 0.8 µM
  relative viability: 0.336
HCC-366; first compound 2.53 µM
  relative viability: 0.549
HCC-366; first compound 8 µM
  relative viability: 0.324
LXF-289; first compound 0.253 µM
  relative viability: 1.05
LXF-289; first compound 0.8 µM
  relative viability: 1.05
LXF-289; first compound 2.53 µM
  relative viability: 1.11
LXF-289; first compound 8 µM
  relative viability: 1.08
HCC-827; first compound 0.253 µM
  relative viability: 0.978
HCC-827; first compound 0.8 µM
  relative viability: 1.06
HCC-827; first compound 2.53 µM
  relative viability: 0.96
HCC-827; first compound 8 µM
  relative viability: 0.846
HCC-15; first compound 0.253 µM
  relative viability: 1.02
HCC-15; first compound 2.53 µM
  relative viability: 0.886
HCC-15; first compound 8 µM
  relative viability: 0.865
COR-L23; first compound 0.253 µM
  relative viability: 0.798
COR-L23; first compound 0.8 µM
  relative viability: 0.794
COR-L23; first compound 2.53 µM
  relative viability: 0.784
COR-L23; first compound 8 µM
  relative viability: 0.875
NCI-H2009; first compound 0.253 µM
  relative viability: 1.1
NCI-H2009; first compound 0.8 µM
  relative viability: 1.12
NCI-H2009; first compound 2.53 µM
  relative viability: 1.19
NCI-H2009; first compound 8 µM
  relative viability: 1.21
SK-MES-1; first compound 0.253 µM
  relative viability: 0.908
SK-MES-1; first compound 0.8 µM
  relative viability: 1.02
SK-MES-1; first compound 2.53 µM
  relative viability: 0.975
SK-MES-1; first compound 8 µM
  relative viability: 0.617
NCI-H1666; first compound 0.253 µM
  relative viability: 1.04
NCI-H1666; first compound 0.8 µM
  relative viability: 0.83
NCI-H1666; first compound 2.53 µM
  relative viability: 0.882
NCI-H1666; first compound 8 µM
  relative viability: 1.04
NCI-H1975; first compound 0.253 µM
  relative viability: 0.724
NCI-H1975; first compound 0.8 µM
  relative viability: 0.667
NCI-H1975; first compound 2.53 µM
  relative viability: 0.753
NCI-H1975; first compound 8 µM
  relative viability: 0.592
NCI-H661; first compound 0.253 µM
  relative viability: 0.957
NCI-H661; first compound 0.8 µM
  relative viability: 0.447
NCI-H661; first compound 2.53 µM
  relative viability: 0.458
NCI-H661; first compound 8 µM
  relative viability: 0.544
H3255; first compound 0.253 µM
  relative viability: 0.664
H3255; first compound 0.8 µM
  relative viability: 0.682
H3255; first compound 2.53 µM
  relative viability: 0.916
H3255; first compound 8 µM
  relative viability: 0.584
NCI-H23; first compound 0.253 µM
  relative viability: 0.792
NCI-H23; first compound 0.8 µM
  relative viability: 0.581
NCI-H23; first compound 2.53 µM
  relative viability: 0.846
NCI-H23; first compound 8 µM
  relative viability: 0.47
NCI-H2087; first compound 0.253 µM
  relative viability: 0.996
NCI-H2087; first compound 0.8 µM
  relative viability: 0.945
NCI-H2087; first compound 2.53 µM
  relative viability: 1.17
NCI-H2087; first compound 8 µM
  relative viability: 1.08
PC-14; first compound 0.253 µM
  relative viability: 0.899
PC-14; first compound 0.8 µM
  relative viability: 0.93
PC-14; first compound 2.53 µM
  relative viability: 0.982
PC-14; first compound 8 µM
  relative viability: 0.9
NCI-H1437; first compound 0.253 µM
  relative viability: 1.01
NCI-H1437; first compound 0.8 µM
  relative viability: 1.03
NCI-H1437; first compound 2.53 µM
  relative viability: 1.09
NCI-H1437; first compound 8 µM
  relative viability: 1
PC-3 [JPC-3]; first compound 0.253 µM
  relative viability: 0.992
PC-3 [JPC-3]; first compound 0.8 µM
  relative viability: 0.981
PC-3 [JPC-3]; first compound 2.53 µM
  relative viability: 1.09
PC-3 [JPC-3]; first compound 8 µM
  relative viability: 1.05
LCLC-103H; first compound 0.253 µM
  relative viability: 0.993
LCLC-103H; first compound 0.8 µM
  relative viability: 1
LCLC-103H; first compound 2.53 µM
  relative viability: 0.862
LCLC-103H; first compound 8 µM
  relative viability: 0.674
ABC-1; first compound 0.253 µM
  relative viability: 0.948
ABC-1; first compound 0.8 µM
  relative viability: 0.996
ABC-1; first compound 2.53 µM
  relative viability: 1.02
ABC-1; first compound 8 µM
  relative viability: 1.01
